This is an account of results in patent publication US11319315B2, “Cyclohexyl acid triazole azoles as LPA antagonists” (BRISTOL-MYERS SQUIBB COMPANY, priority 2017, dated 2022).

The target of the assay is T1, human LPA1 (Homo sapiens, UniProt Q92633).
T1 construct: expressed in transfected cells; host or cells: Chinese hamster ovary (CHO) cells
T1 sequence (Q92633 whole entry): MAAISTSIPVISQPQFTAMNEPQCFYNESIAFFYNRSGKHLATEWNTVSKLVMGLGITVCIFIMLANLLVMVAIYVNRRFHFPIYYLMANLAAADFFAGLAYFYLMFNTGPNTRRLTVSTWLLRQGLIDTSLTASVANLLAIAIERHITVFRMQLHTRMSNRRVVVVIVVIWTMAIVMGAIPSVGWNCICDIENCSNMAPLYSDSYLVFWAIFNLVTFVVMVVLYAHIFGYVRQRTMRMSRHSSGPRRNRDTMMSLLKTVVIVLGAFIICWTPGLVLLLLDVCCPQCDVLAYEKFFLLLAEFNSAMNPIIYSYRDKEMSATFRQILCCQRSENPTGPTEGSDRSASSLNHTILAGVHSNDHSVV
The assay is described as follows: LPA1 functional antagonist assay (LPA-induced calcium flux in CHO cells overexpressing human LPA1). Type of assay: cell-based. As to conditions: inhibition of calcium flux induced by 10 nM LPA, CHO cells overexpressing human LPA1; read-out: hLPA1 IC50. In short, it runs like this:
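Calcium flux was triggered by 10 nM LPA after 20 min room-temperature compound pre-incubation (final 0.08 nM to 5 μM, 0.5% DMSO) in human LPA1-overexpressing CHO cells carrying calcium dye. Buffer: HBSS with Ca/Mg, 20 mM HEPES, 0.1% fatty-acid-free BSA; IC50s from 4-parameter logistic fits.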
A word on the IC50: it is the concentration that inhibits the measured activity by half. Turning to `CCCc1nnnn1Cc1c(-c2ccc(O[C@H]3CCC[C@H](C(=O)O)C3)c(C)n2)nnn1C` [Example 114], the 50% inhibitory concentration (IC50) was 125 nM. As for `Cc1nc(-c2nnn(C)c2COc2ncn(-c3ccccc3)n2)ccc1O[C@H]1CCC[C@H](C(=O)O)C1` [Example 115, (1S,3S)-3-((2-methyl-6-(1-methyl-5-(((1-phenyl-1H-1,2,4-triazol-3-yl)oxy)methyl)-1H-1,2,3-triazol-4-yl)pyridin-3-yl)oxy)cyclohexane-1-carboxylic acid], the figure is 47 nM; as for `Cc1nc(-c2nnn(C)c2COc2nc(C3CC3)ns2)ccc1O[C@H]1CCC[C@H](C(=O)O)C1` [Example 116, (1S,3S)-3-((6-(5-(((3-cyclopropyl-1,2,4-thiadiazol-5-yl)oxy)methyl)-1-methyl-1H-1,2,3-triazol-4-yl)-2-methylpyridin-3-yl)oxy)cyclohexane-1-carboxylic acid], 405 nM. Take `Cc1nc(-c2nnn(C)c2COc2noc(CC3CC3)n2)ccc1O[C@H]1CCC[C@H](C(=O)O)C1` [Example 117, (1S,3S)-3-((6-(5-(((5-(cyclopropylmethyl)-1,2,4-oxadiazol-3-yl)oxy)methyl)-1-methyl-1H-1,2,3-triazol-4-yl)-2-methylpyridin-3-yl)oxy)cyclohexane-1-carboxylic acid]: the IC50 turned out to be 11 nM. As for `CCc1nsc(NCc2c(-c3ccc(O[C@H]4CCC[C@H](C(=O)O)C4)c(C)n3)nnn2C)n1` [Example 118], the figure is 919 nM; as for `Cc1nc(-c2nnn(C)c2CNc2nc(C(F)(F)F)ns2)ccc1O[C@H]1CCC[C@H](C(=O)O)C1` [Example 119], 60 nM. For `Cc1nc(-c2nnn(C)c2CNc2nsc(C(C)C)n2)ccc1O[C@H]1CCC[C@H](C(=O)O)C1` [Example 120], the IC50 is 25 nM. Then `Cc1nc(-c2nnn(C)c2CNc2nsc(Nc3ccccc3)n2)ccc1O[C@H]1CCC[C@H](C(=O)O)C1` [Example 121], with 470 nM. Then `Cc1nc(-c2nnn(C)c2CNc2nnc(C(C)C)s2)ccc1O[C@H]1CCC[C@H](C(=O)O)C1` [Example 122], with 555 nM; and `Cc1nc(-c2nnn(C)c2CNc2cc(C3CC3)nn2C)ccc1O[C@H]1CCC[C@H](C(=O)O)C1` [Example 123], with 1290 nM; and `Cc1nc(-c2nnn(C)c2CNc2cnn(C(C)C)n2)ccc1O[C@H]1CCC[C@H](C(=O)O)C1` [Example 124], with 337 nM. Then `Cc1nc(-c2nnn(C)c2CNc2cc(C(C)C)nn2C)ccc1O[C@H]1CCC[C@H](C(=O)O)C1` [Example 125], with 627 nM. For the molecule `Cc1nc(-c2nnn(C)c2CNc2ncn(C(C)C)n2)ccc1O[C@H]1CCC[C@H](C(=O)O)C1` [Example 126], the IC50 was 1490 nM. Then `CCCc1nsc(OCc2c(-c3ccc(O[C@H]4CCC[C@H](C(=O)O)C4)c(C)n3)nnn2C)n1` [Example 127], with 425 nM; and `Cc1nc(-c2nnn(C)c2COc2nc(C(C)C)ns2)ccc1O[C@H]1CCC[C@H](C(=O)O)C1` [Example 128], with 98 nM; and `CCc1nc(OCc2c(-c3ccc(O[C@H]4CCC[C@H](C(=O)O)C4)c(C)n3)nnn2C)no1` [Example 129], with 41 nM. With `Cc1nc(-c2nnn(C)c2COc2noc(C(C)C)n2)ccc1O[C@H]1CCC[C@H](C(=O)O)C1` [Example 130], the IC50 worked out at 26 nM. Consider `CCCc1nc(OCc2c(-c3ccc(O[C@H]4CCC[C@H](C(=O)O)C4)c(C)n3)nnn2C)no1` [Example 131], for which the IC50 amounted to 19 nM. For `CCCc1nnc(OCc2c(-c3ccc(O[C@H]4CCC[C@H](C(=O)O)C4)c(C)n3)nnn2C)s1` [Example 132], the IC50 is 97 nM. Consider `Cc1nc(-c2nnn(C)c2COc2cc(-c3ccccn3)on2)ccc1O[C@H]1CCC[C@H](C(=O)O)C1` [Example 133], for which the IC50 is 208 nM.

For `Cc1nc(-c2nnn(C)c2COc2noc(C3CC3)n2)ccc1O[C@H]1CCC[C@H](C(=O)O)C1` [Example 134], the half-maximal inhibitory concentration (IC50) came to 25 nM. As to `Cc1nc(-c2nnn(C)c2COc2ncn(CC(C)C)n2)ccc1O[C@H]1CCC[C@H](C(=O)O)C1` [Example 135, (1 S,3 S)-3-((6-(5-(((1-Isobutyl-1H-1,2,4-triazol-3-yl)oxy)methyl)-1-methyl-1H-1,2,3-triazol-4-yl)-2-methylpyridin-3-yl)oxy)cyclohexane-1-carboxylic acid], the IC50 was 32 nM.

In the case of `Cc1nc(-c2nnn(C)c2COc2nnn(CC(C)C)n2)ccc1O[C@H]1CCC[C@H](C(=O)O)C1` [Example 136, (1S,3S)-3-((6-(5-(((2-Isobutyl-2H-tetrazol-5-yl)oxy)methyl)-1-methyl-1H-1,2,3-triazol-4-yl)-2-methylpyridin-3-yl)oxy)cyclohexane-1-carboxylic acid], the IC50 is 20 nM.

Consider `CC(C)c1nc(NCc2c(-c3ccc(O[C@H]4CCC[C@H](C(=O)O)C4)cn3)nnn2C)ns1` [Example 137], for which the IC50 was 320 nM. In the case of `CCCc1cnc(NCc2c(-c3ccc(O[C@H]4CCC[C@H](C(=O)O)C4)c(C)n3)nnn2C)o1` [Example 138], the IC50 was determined as 36 nM. Then `Cc1nc(-c2nnn(C)c2CNc2ncc(C(C)C)o2)ccc1O[C@H]1CCC[C@H](C(=O)O)C1` [Example 139], with 38 nM; and `Cc1nc(-c2nnn(C)c2COc2ncn(CC3CC3)n2)ccc1O[C@H]1CCC[C@H](C(=O)O)C1` [Example 140], with 57 nM; and `CCCCn1cnc(OCc2c(-c3ccc(O[C@H]4CCC[C@H](C(=O)O)C4)c(C)n3)nnn2C)n1` [Example 141], with 71 nM. Then `CCC(C)n1cnc(OCc2c(-c3ccc(O[C@H]4CCC[C@H](C(=O)O)C4)c(C)n3)nnn2C)n1` (some centres unmarked) [Example 142], with 509 nM; and `Cc1nc(-c2nnn(C)c2COc2nnn(CC3CC3)n2)ccc1O[C@H]1CCC[C@H](C(=O)O)C1` [Example 143], with 24 nM. Then `Cc1nc(-c2nnn(C)c2COc2nnnn2CC(C)C)ccc1O[C@H]1CCC[C@H](C(=O)O)C1` [Example 144], with 94 nM; and `Cc1nc(-c2nnn(C)c2CNc2noc(COC(C)C)n2)ccc1O[C@H]1CCC[C@H](C(=O)O)C1` [Example 145], with 31 nM. With `COCCCc1nc(NCc2c(-c3ccc(O[C@H]4CCC[C@H](C(=O)O)C4)c(C)n3)nnn2C)no1` [Example 146], the half-inhibitory concentration (IC50) turned out to be 103 nM.

As for `CCOCc1nc(NCc2c(-c3ccc(O[C@H]4CCC[C@H](C(=O)O)C4)c(C)n3)nnn2C)no1` [Example 147], the half-maximal inhibitory concentration (IC50) worked out at 45 nM. `Cc1nc(-c2nnn(C)c2CNc2noc(C3(F)CCC3)n2)ccc1O[C@H]1CCC[C@H](C(=O)O)C1` [Example 148]: the IC50 amounted to 19 nM. Then `CCC(C)n1cnc(NCc2c(-c3ccc(O[C@H]4CCC[C@H](C(=O)O)C4)c(C)n3)nnn2C)n1` (some centres unmarked) [Example 149], with 221 nM; and `CCCCn1cnc(NCc2c(-c3ccc(O[C@H]4CCC[C@H](C(=O)O)C4)c(C)n3)nnn2C)n1` [Example 150], with 68.2 nM. Then `Cc1nc(-c2nnn(C)c2CNc2noc(C3CCOC3)n2)ccc1O[C@H]1CCC[C@H](C(=O)O)C1` (some centres unmarked) [Example 151], with 114 nM; and `Cc1nc(-c2nnn(C)c2CNc2ncn(CC3CC3)n2)ccc1O[C@H]1CCC[C@H](C(=O)O)C1` [Example 152], with 179 nM; and `Cc1nc(-c2nnn(C)c2CNc2noc(C3CC(F)(F)C3)n2)ccc1O[C@H]1CCC[C@H](C(=O)O)C1` [Example 153], with 46.1 nM. As for `Cc1nc(-c2nnn(C)c2CNc2noc(C3(C)CC3)n2)ccc1O[C@H]1CCC[C@H](C(=O)O)C1` [Example 154], the figure is 441 nM; as for `Cc1nc(-c2nnn(C)c2CNc2noc(C(C)(C)C)n2)ccc1O[C@H]1CCC[C@H](C(=O)O)C1` [Example 155], 85 nM; as for `Cc1nc(-c2nnn(C)c2CNc2nc(CC3CCC3)no2)ccc1O[C@H]1CCC[C@H](C(=O)O)C1` [Example 156], 29 nM. Take `Cc1nc(-c2nnn(C)c2CNc2nc(CC(C)C)no2)ccc1O[C@H]1CCC[C@H](C(=O)O)C1` [Example 157]: the IC50 came out at 53 nM. As to `Cc1nc(-c2nnn(C)c2CNc2nc(CCC(C)C)no2)ccc1O[C@H]1CCC[C@H](C(=O)O)C1` [Example 158], the 50% inhibitory concentration (IC50) turned out to be 21 nM. As for `Cc1nc(-c2nnn(C)c2CNc2noc(CCC3CC3)n2)ccc1O[C@H]1CCC[C@H](C(=O)O)C1` [Example 165], the figure is 6 nM; as for `Cc1nc(-c2nnn(C)c2CNc2noc(CCC3CCC3)n2)ccc1O[C@H]1CCC[C@H](C(=O)O)C1` [Example 166], 5 nM; as for `Cc1nc(-c2nnn(C)c2CNc2noc(CCC(C)F)n2)ccc1O[C@H]1CCC[C@H](C(=O)O)C1` (some centres unmarked) [Example 167], 16 nM.

Consider `Cc1nc(-c2nnn(C)c2CNc2cc(C(C)C)no2)ccc1O[C@H]1CCC[C@H](C(=O)O)C1` [Example 168], for which the IC50 was 84 nM. For `Cc1nc(-c2nnn(C)c2CNc2cc(C(C)(C)C)on2)ccc1O[C@H]1CCC[C@H](C(=O)O)C1` [Example 169], the IC50 was found to be 63 nM. Then `CCC(C)Cc1nc(NCc2c(-c3ccc(O[C@H]4CCC[C@H](C(=O)O)C4)c(C)n3)nnn2C)no1` (some centres unmarked) [Example 170], with 18 nM; and `CCCC(C)c1nc(NCc2c(-c3ccc(O[C@H]4CCC[C@H](C(=O)O)C4)c(C)n3)nnn2C)no1` (some centres unmarked) [Example 171], with 12 nM; and `COCCc1nc(NCc2c(-c3ccc(O[C@H]4CCC[C@H](C(=O)O)C4)c(C)n3)nnn2C)no1` [Example 172], with 120 nM. Then `Cc1nc(-c2nnn(C)c2CNc2noc(C3CC3)n2)ccc1O[C@H]1CCC[C@H](C(=O)O)C1` [Example 173], with 266 nM.

Consider `Cc1nc(-c2nnn(C)c2CNc2noc(C(C)C)n2)ccc1O[C@H]1CCC[C@H](C(=O)O)C1` [Example 174], for which the half-maximal inhibitory concentration (IC50) is 223 nM.

Turning to `Cc1nc(-c2nnn(C)c2CNc2noc(C3CCC3)n2)ccc1O[C@H]1CCC[C@H](C(=O)O)C1` [Example 175], the concentration for half-maximal inhibition (IC50) was found to be 20 nM.
